Two molecules from patent US20080064725A1, “INTRATHECAL ADMINISTRATION OF TRIPTAN COMPOSITIONS TO TREAT NON-MIGRAINE PAIN” (priority 2006, published 2008) can be followed below.

In data set [1] the test system is CD1 male mice. Description: spared nerve injury (SNI) model of neuropathic pain. It is filed as in vivo. As for the experimental part: Spared nerve injury (SNI) model of neuropathic pain. A model of partial sciatic nerve injury was used in which the peroneal and sural nerves were selectively ligated and cut, sparing the tibial nerve. […] Animals were injected in a blinded cross-over manner, in which half of the animals received sumatriptan on one day and saline on the other.

For data set [2], the system named is CD1 male mice. Description: carrageenan-induced thermal and mechanical hypersensitivity.
The test system of data set [3] is CD1 male mice. Nature of the data set: radiant heat to the hindpaw (Hargreaves test), baseline thresholds. It is filed as in vivo.
In data set [4] the test system is CD1 male mice. Description: mechanical nociceptive thresholds with calibrated monofilaments, baseline. It is filed as in vivo.
Data set [5] relates to CD1 male mice. Nature of the data set: hot plate test of acute thermal pain. It is filed as in vivo. For orientation: Thermal pain tests record how soon the animal reacts.
In data set [6] the test system is CD1 male mice. Description: formalin test of pain behavior.
Data set [7] deals with CD1 male mice. Nature of the data set: CFA-induced persistent inflammation, mechanical hyperalgesia. It is filed as in vivo. To be noted: IT 0.0006, 0.006, 0.01, 0.06 μg; days 3-7 after CFA. How it is done:
Intrathecal sumatriptan reduces the hyperalgesic effects of persistent inflammation induced by Complete Freunds Agent (CFA). CFA injection produces a prolonged period of mechanical hyperalgesia that persists and remains stable during days 3-7 after injection into the plantar surface of the hindpaw. CD1 male mice were used. Mechanical thresholds were tested on the first day, prior to a single injection of CFA to a hindpaw (baseline). By day 3 after CFA injection animals were hyperalgesic (post CFA 3d). Animals were tested for a sumatriptan response on 4 successive days (days 3-6) after CFA. A mechanical threshold was determined on each successive day prior to the administration of intrathecal sumatriptan. Doses of sumatriptan tested are: 0.0006 μg, 0.006 μg, 0.01 μg, and 0.06 μg, all in the volume of 5 μl. Mechanical thresholds were then determined at 30 and 60 min after the injection. The average withdrawal thresholds for the CFA-treated hindpaw at […] after the administration of each dose of sumatriptan was measured. The antihyperalgesic effect of each of these doses, expressed as a percent of the pre-injection threshold for that day, were compared to the original baseline.
Persistent inflammation after CFA. […] Hindpaw swelling pre- and 72 hours postinjection was measured to confirm the effects of the injection.

Data set [8] has as its system CD1 male mice. Nature of the data set: Rotarod test for sedative and sensorimotor effects. It is filed as in vivo. To be noted: SC 300, 600 μg/kg or IT 0.06, 0.60 μg; one hour after dosing. How it is done: To screen for sedative and other adverse sensorimotor effects, mice were tested on a Rotarod (Ugo Basile, Comerio, Italy). The time in which mice were able to balance on a rod rotating on its axis at a constant velocity of 15 rpm were measured. The total duration of each trial was 300 sec. On the day prior to the test, animals accommodated to the task with three separate training trials. […] A single trial was used for each dose and route; reported times represent % change from the baseline value for each animal ±SEM.
On the technique in general: The rotarod test checks motor coordination on a turning rod.

Setting [9] is: intrathecal, 24 hours after carrageenan to hindpaw, dose-dependent.
[10] abbreviates: sumatriptan SC 300, 600 μg/kg or IT 0.06, 0.60 μg, unstimulated baseline state.

Regarding `CN1CC[C@]23c4c5ccc(O)c4O[C@H]2[C@@H](O)C=C[C@H]3[C@H]1C5.O=S(=O)(O)O` [morphine, morphine sulfate], the “analgesia in SNI model” value with CD1 male mice [1] (IT morphine) was “profound analgesia, to cutoff latencies”. The “analgesia in carrageenan model” value in the data set on CD1 male mice [2] (IT morphine) is recorded as “profound analgesia, with all animals reaching the cutoff latency”. The “Hargreaves test analgesic response” value with CD1 male mice [3] (positive control, 10 nmol IT) is listed as “robust analgesic response”. Also, the “mechanical pain test analgesic response” value in the data set with CD1 male mice [4] (positive control, 10 nmol IT) is given as “robust analgesic response”. Moreover, in the data set on CD1 male mice [5] (positive control, 10 nmol IT), the “hot-plate test analgesic response” value is listed as “robust analgesic response”. Besides, in the data set with CD1 male mice [6] (positive control, 10 nmol IT), the “formalin test, first phase pain behavior” value is “eliminated” and the “formalin test, second phase pain behavior” value is reported as “eliminated”.

`CNS(=O)(=O)Cc1ccc2[nH]cc(CCN(C)C)c2c1` [sumatriptan]: in the data set on CD1 male mice [7], the “mechanical hypersensitivity after intraplantar CFA” value was “reduced mechanical hypersensitivity”. Also, the “mechanical hypersensitivity produced by nerve injury (SNI)” value with CD1 male mice [1] (SNI 7 d, regardless of dose or route of delivery, IT 0.6 μg, 30-120 min after drug) was “completely without effect”. For the same molecule, the “nociceptive thresholds of unaffected contralateral leg” value in the data set on CD1 male mice [1] (SNI model, IT sumatriptan) is “unaffected”. The “sedation or sensorimotor incoordination on the Rotarod test” value with CD1 male mice [8] is reported as “no evidence of confounding deficits due to sedation or sensorimotor incoordination”. In addition, in the data set with CD1 male mice [2] (IT sumatriptan, carrageenan model), the “time after injection at which antinociceptive effect was significant” value is reported as 30 min. In addition, the “behavior after carrageenan, SC drug compared with control IT saline” value in the data set on CD1 male mice [2] (SC sumatriptan) is “did not differ”. In addition, the “pain thresholds of unstimulated contralateral hindlimb” value with CD1 male mice [2] (carrageenan model, sumatriptan) is listed as “did not affect pain thresholds”. Moreover, the “thermal latencies versus baseline (analgesic effect beyond reversal of hyperalgesia)” value with CD1 male mice [2] (intrathecal sumatriptan, carrageenan-treated hindpaw) is “latencies exceeded those at baseline”. In the data set with CD1 male mice [2] (setting [9]), the “mechanical hypersensitivity after carrageenan” value is “completely reversed” and the “thermal hypersensitivity after carrageenan” value is reported as “completely reversed”. Besides, the “Hargreaves test (radiant heat to hindpaw) threshold” value in the data set on CD1 male mice [3] (setting [10]) is “no significant changes in threshold”. Moreover, in the data set on CD1 male mice [4] (setting [10]), the “mechanical pain threshold, calibrated monofilaments” value is reported as “no significant changes in threshold”. Also, the “hot-plate test threshold (latency)” value with CD1 male mice [5] (setting [10]) is given as “no significant changes in threshold”. The “formalin test, second phase (11-60 min) pain behavior” value in the data set on CD1 male mice [6] (IT 0.006, 0.06, 0.60 μg one hour before formalin, dose-dependent) is listed as “profound reduction of pain behavior”. The “formalin test, second phase pain behavior” value in the data set on CD1 male mice [6] (systemic (SC) 300, 600 μg/kg one hour before formalin) is given as “modestly reduced second phase behaviors, but only at the highest dose tested”.
